What all share (format): functional
The test system of experiment [1] is Pseudomonas aeruginosa. As to the kind of experiment: Antimicrobial activity against Pseudomonas aeruginosa.
The subject of experiment [2] is Escherichia coli. As to the kind of experiment: Antimicrobial activity against Escherichia coli.
Experiment [3] relates to Staphylococcus aureus. As to the kind of experiment: Antimicrobial activity against Staphylococcus aureus.

Our source for the MIC values is ChEMBL document CHEMBL1138924, “Crystal structure, spectroscopic, and biological study of the copper(II) complex with third-generation quinolone antibiotic sparfloxacin” (2006).

A word on the MIC: it is the lowest concentration that inhibits growth of the organism. A lower MIC goes with inhibition by little substance.

Structures are written as SMILES. Converted amounts (≈) assume the structure as drawn.

As to `C[C@@H]1CN(c2c(F)c(N)c3c(=O)c(C(=O)O)cn(C4CC4)c3c2F)C[C@H](C)N1` [SPARFLOXACIN], the minimal inhibitory concentration (MIC) in experiment [1] turned out to be 0.25 µg/mL (≈ 0.637 µM); in experiment [2], 8 µg/mL (≈ 20.4 µM); in experiment [3] it was 0.5 µg/mL (≈ 1.27 µM).
